Measurements published in patent US12478614B2, “Inhibitors of glutathione s-transferases (GSTs) and NAD(P)H:quinone oxidoreductase 1 (NQO1), pharmaceutical compositions, and uses in managing cancer” (Emory University, priority 2020, dated 2025).
Entries after “also recorded” stand apart in the source; their conditions may differ.

Experiments:
GSTP1 [1] = experiment: GSTP1 protein level upon treatment; type: cell-based; settings: upon MNPC treatment
Experimental: (§1) To explore the anti-proliferative effects of MNPC, U87MG/EGFRVIII cells were treated with different doses of MNPC (0, 0.1, 0.5, 1 and 5 μM) for 5 days. […] Asparagine endopeptidase (AEP) is frequently overexpressed in numerous human cancers and mediates cancer cell invasion and metastasis. […] Since NQO1 and GSTP1 are the major binding proteins of MNPC, in vitro reductase enzyme activity assays with purified recombinant proteins was conducted. […] NQO1 also acts as an antioxidant enzyme by regenerating antioxidant forms of ubiquinone and vitamin E quinone. To explore whether the oxidative stress levels are correlated with the expression levels of antioxidant enzymes: NQO1 and GSTP1, the cellular ROS concentrations and cytotoxicity after MNPC treatment was examined. […] Thus, MNPC inhibits GSTP1 and NQ01 enzyme activities without altering their protein levels. […] The results were also confirmed by TUNEL assay.

GSTP1 [2] = target: T1, GSTP1 (Homo sapiens, UniProt P09211); experiment: BIACORE binding assay, GSTP1; settings: MNPC immobilized to the chip
NQO1 [3] = experiment: NQO1 protein level upon treatment; type: cell-based; settings: upon MNPC treatment
Experimental: as §1

[4] = target: T2, Asparagine endopeptidase (AEP) (Homo sapiens, UniProt Q99538); experiment: AEP enzymatic activity assay; type: cell-based
T2 construct: endogenous in cells; host or cells: U87MG/EGFRvIII (inferred from context)
T2 sequence (Q99538 18-323): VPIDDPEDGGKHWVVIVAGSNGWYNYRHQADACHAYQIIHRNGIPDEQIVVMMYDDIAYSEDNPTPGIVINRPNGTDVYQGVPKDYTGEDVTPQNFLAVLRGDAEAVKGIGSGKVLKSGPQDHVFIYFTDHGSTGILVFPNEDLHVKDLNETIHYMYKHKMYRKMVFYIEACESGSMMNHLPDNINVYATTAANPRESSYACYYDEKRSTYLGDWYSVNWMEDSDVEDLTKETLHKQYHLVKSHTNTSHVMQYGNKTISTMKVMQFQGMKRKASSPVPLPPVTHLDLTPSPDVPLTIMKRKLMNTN
Experimental: as §1

NQO1 [5] = target: T3, NQO1 (Homo sapiens, UniProt P15559); experiment: In vitro reductase enzyme activity assay, NQO1; type: biochemical; settings: purified recombinant protein
Experimental: as §1

NQO1 [6] = target: T3, NQO1; experiment: Co-crystal structure with NQO1
Experimental: (§2) Experiments indicate that both NQO1 and GSTP1 were overexpressed in GBM, which inhibit the oxidative stress and prevent cancer cell death. Compounds which act as NQO1 and GSTP1 dual inhibitors suppress the proliferation and stimulated apoptosis in U87MG/EGFRVIII cells. […] Thus, these experiments indicate that a small dual inhibitor for both NQO1 and GSTP1 disrupting the redox homeostasis might be an innovative strategy for GBM therapy.

U87MG/EGFRvIII cells [7] = experiment: Apoptosis (caspase-3 activation, TUNEL assay); type: cell-based
Experimental: as §1

NQO1 [8] = target: T3, NQO1; experiment: BIACORE binding assay, NQO1; settings: MNPC immobilized to the chip
U87MG/EGFR cells = experiment: Cellular oxidative stress and cytotoxicity after MNPC treatment; type: cell-based
Experimental: as §1

GSTP1 [9] = target: T1, GSTP1; experiment: Co-crystal structure with GSTP1
Experimental: as §2

U87MG/EGFRvIII cells [10] = experiment: Cell invasion assay; type: cell-based
Experimental: as §1

U87MG/EGFRvIII cells [11] = experiment: Murine intracranial xenograft model with U87MG/EGFRvIII cells; type: in vivo, Nu/Nu nude mice
Experimental: Nu/Nu nude mice were treated with increasing doses (3, 10 mg/kg) of MNPC by i.p. every two days for total 10 times (n=6 mice per group). The survival curves of brain tumor-bearing mice were calculated.
To assess the therapeutic potential of MNPC, a murine intracranial xenograft model was used, inoculated with U87MG/EGFRvIII cells. After 7 days of brain injection of the GBM cells and the tumor formation, the animals were treated with vehicle or different doses of MNPC (3 or 10 mg/kg) every 2 days for a total of 10 times. […] The ROS levels and signaling cascades were examined in the tissue samples derived from tumors extracted from MNPC or vehicle-treated mice.

U87MG/EGFRvIII cells [12] = experiment: Proliferation of U87MG/EGFRvIII cells; type: cell-based
Experimental: After structure-activity relationship (SAR) analysis, it was identified that that most compounds contained two aromatic rings bridged through an amide group.
as §1

GSTP1 [13] = target: T1, GSTP1; experiment: In vitro enzyme activity assay, GSTP1; type: biochemical; settings: purified recombinant protein
Experimental: as §1

[14] = 3 or 10 mg/kg i.p. every 2 days, 10 times, especially 10 mg/kg

## Cc1onc(-c2ccccc2)c1C(=O)Nc1ncc([N+](=O)[O-])s1 [MNPC, 5-methyl-N-(5-nitrothiazol-2-yl)-3-phenylisoxazole-4-carboxamide]
GSTP1 [1]
  protein level of GSTP1: not changed
GSTP1 [2]
  Kd: 89.6 nM
NQO1 [3]
  protein level of NQO1: not changed
[4]
  AEP enzymatic activity: no significant difference
NQO1 [5]
  IC50: 926 nM
NQO1 [6]
  effect on NQO1 active site in co-crystal structure: blocked the active enzymatic sites
U87MG/EGFRvIII cells [7]; TUNEL assay
  cell apoptosis: dose-dependently increases
U87MG/EGFRvIII cells [7]; U87MG/EGFRvIII cells
  caspase-3 activation: induced
NQO1 [8]
  Kd: 90.8 nM
U87MG/EGFR cells
  Carbonyl Expression: escalated
U87MG/EGFR cells; cytotoxicity
  LDH: escalated
U87MG/EGFR cells; dose-dependent
  ROS levels: increased
U87MG/EGFR cells; in a dose-dependent manner
  GSH/GSSH ratios: down-regulated
GSTP1 [9]
  effect on GSTP1 active site in co-crystal structure: blocked the active enzymatic sites
U87MG/EGFRvIII cells [10]
  cell invasion: no significant difference
U87MG/EGFRvIII cells [11]; 3 or 10 mg/kg i.p. every 2 days, 10 times
  tumor growth (intracranial tumor volume): dose-dependent anti-tumor effect; also recorded: suppresses tumor growth
U87MG/EGFRvIII cells [11]; [14]
  body weight: significantly increased
  survival rates: prolonged the survival rate; also recorded: significantly increased; also recorded: elongates mouse life span
U87MG/EGFRvIII cells [11]; tumors from treated mice
  ROS levels in tumor tissue samples: strongly increased
  apoptotic caspase 3 in tumor tissue samples: activated
U87MG/EGFRvIII cells [12]; U87MG/EGFRVIII cells, 0, 0.1, 0.5, 1 and 5 μM for 5 days
  cell proliferation: dose-dependently inhibited
GSTP1 [13]
  IC50: 797 nM

## CC(=O)Oc1ccccc1C(=O)Nc1ncc([N+](=O)[O-])s1 [NTZ, 2-((5-nitrothiazol-2-yl)carbamoyl)phenyl acetate]
U87MG/EGFRvIII cells [12]
  anti-proliferative activities toward U87MG/EGFRvIII cells compared with MNPC: comparable anti-proliferative activities

## O=C(Nc1ncc([N+](=O)[O-])s1)c1ccccc1O [TIZ, 2-hydroxy-N-(5-nitrothiazol-2-yl)benzamide]
U87MG/EGFRvIII cells [12]
  anti-proliferative activities toward U87MG/EGFRvIII cells compared with MNPC: comparable anti-proliferative activities
